Results on two molecules are retold here after patent US12274726B2, “Enteric aerobization therapy” (LPOXY THERAPEUTICS, INC., priority 2021, dated 2025).

The subject of data set [1] is Clostridioides difficile ATCC 43255. The conditions noted are these: for cure rate: mouse CDI model, 14 days follow-up; for survival: treatment study day 0 to 4, followed for 14 days after inoculum, 10 mice per group.
Description: Because of the more humanlike characteristics for mouse CDI model, it was chosen to evaluate enteric aerobization.
Administration of enteric aerobization therapies presented several challenges with the mouse model. Administration of experimental compounds in rodents is normally performed via gastric gavage using a solution of the test article. However, this could not be accomplished with enteric aerobization therapy because dissolving the mixture prior to administration would result in premature loss of oxygen effervescence before entering the intestine. Further, there is uncertainty that rodents reliably pass enteric coated capsules or tablets from the stomach to the intestine. […] Finally, the small capsule or tablet sizes required for rodent administration severely limits dosages.
Thirty C57BL/6 female mice (18-22 g) fitted with duodenal catheters externalized and fitted with access button ports were purchased from Charles River Laboratories and singly housed in a temperature and humidity-controlled room with a 12-hour light cycle. The mice were divided into 3 groups of 10.
The mice were pretreated with an antibiotic cocktail in their drinking water for 8 consecutive days. This antibiotic cocktail was composed of 1% glucose, 500 mcg/mL kanamycin, 44 mcg/mL gentamicin, 1062.5 units per milliliter colistin, 269 mcg/mL metronidazole, 156 mcg/mL ciprofloxacin, 100 mcg/mL ampicillin, and 56 mcg/mL vancomycin. The antibiotic cocktail and drinking water were replaced every 2 to 3 days. Five days prior to infection the antibiotic water was removed and normal drinking water was provided to the animals. Three days prior to infection the animals received a single dose of clindamycin 10 mg per kilogram via oral administration in a volume of 10 mL per kilogram.
On study Day 0 mice were inoculated with the bacterial suspension of 5×10^5 CFU Clostridioides difficile ATCC 43255 via oral gavage. Eight hours after inoculation administration of vehicle, antibiotic control, and test article was initiated according to the following. The vehicle a.k.a. infection control group of 10 mice received 80 μL per hour 100% pure nitrogen gas via duodenal catheter. The infection control group of 10 mice received 50 mg/kg vancomycin via oral gavage once daily. […] Administration was continued from study day 0 to study day 4, a total of 5 days. The mice were followed for 14 days after inoculum recording daily weights and clinical observations. Animals that appeared severely moribund were euthanized. At the end of the study all animals were humanely euthanized.
The conditions of data set [2]: up to maximum bolus tested, 200 microliters every 6 hours (8 mL/kg per bolus; 32 mL/kg/day). The procedure: In a separate experiment using the above conditions the tolerance of bolus injection of 100% oxygen gas was tested.

In the case of `O=O` [EAT, oxygen], the “clinical severity (total clinical score) compared to infection control group” value in data set [1] (FIG. 9) is recorded as “mildly ill”. Further, the “animals showing clinical signs of infection/recurrence in the 2nd week after inoculation, after treatment” value in data set [1] (days 8-14) is on record as “no recurrent infections”. Further, the “adverse effects due to gas infusion” value in data set [1] (efficacy experiments, 3.2 mL/kg/hr, 76.8 mL/kg/day) was “no adverse effects”. For the same molecule, in data set [1], the cure rate is recorded as 100% and the survival came to 100%. Moreover, the “adverse effects of bolus injection” value in data set [2] is listed as “No adverse effects were observed”.
As for `CN[C@H](CC(C)C)C(=O)N[C@H]1C(=O)N[C@@H](CC(N)=O)C(=O)N[C@H]2C(=O)N[C@H]3C(=O)N[C@H](C(=O)N[C@H](C(=O)O)c4cc(O)cc(O)c4-c4cc3ccc4O)[C@H](O)c3ccc(c(Cl)c3)Oc3cc2cc(c3O[C@@H]2O[C@H](CO)[C@@H](O)[C@H](O)[C@H]2O[C@H]2C[C@](C)(N)[C@H](O)[C@H](C)O2)Oc2ccc(cc2Cl)[C@H]1O` [vancomycin, reference compound], in data set [1], the cure rate is 30% and the survival is reported as 100%.
